Key:
IL-12 receptor = test: Steady state 125I-IL-12 binding to human cells (Scatchard)
[1] = molecular target: T1, detergent solubilized IL-12R from Kit 225/K6 cells (Homo sapiens, UniProt P42701); test: 125I-IL-12 binding to detergent solubilized IL-12R immunoprecipitated by immobilized 2*4E6; settings: proteins immunoprecipitated by immobilized 2*4E6 from solubilized K6 cell extracts; read-out: apparent affinity of 125I-IL-12, single site
T1 construct: were solubilized with 8 mM CHAPS extraction buffer; endogenous in cells; host or cells: Kit 225/K6 cells, CHAPS extract
Description: FIG. 8A: Kit 225/K6 cells (1.5×10^8 cells/ml) were solubilized with 8 mM CHAPS extraction buffer and the cell extract (0.2 ml) was immunoprecipitated for 16 hrs at 4° C. with mAb 2*4E6 immobilized on goat anti-mouse IgG coupled to agarose as discussed below. Following this incubation, the beads were pelleted, washed and resuspended in IP buffer containing ^125 I-IL-12 at concentrations ranging from 7 pM to […]. The IL-12R immobilized on the 2*4E6 coated beads was incubated with ^125 I-IL-12 for 2 hrs at RT and IL-12R bound radioactivity was determined in the presence of 50 nM unlabelled IL-12.
To confirm that the antibodies identified by the immunoprecipitation assay were specific for IL-12R, an immunoprecipitation/soluble IL-12R binding assay was developed. […] Following this incubation, the beads were pelleted, washed twice with IP buffer and the bound radioactivity determined in a gamma counter. Nonspecific binding was determined by inclusion of 70 nM unlabeled human IL-12 in the assay. Solubilized IL-12R binding data were analyzed according to the method of Scatchard, (Assn. N.Y. Acad. Sci., 51, 660 (1949)) by using the nonlinear regression programs EBDA and Ligand as adapted for the IBM PC by McPherson, from Elsevier-BIOSOFT.

[2] = molecular target: T2, human recombinant IL-12 receptor β subunit (Homo sapiens, UniProt P42701); test: Equilibrium binding of 125I-IL-12 and 125I-2*4E6 to recombinant IL-12R expressed in COS cells
T2 construct: expressed in transfected cells; host or cells: COS / COS-7 cells
Description: COS cells (4-5×10^7) were transfected by electroporation with 25 μg of plasmid DNA expressing recombinant human IL-12R (Chua, et al., J. Immunol., 153:128 (1994)) in a BioRad Gene Pulser (250 μF, 250 volts) according to the manufacturer's protocol. The cells were plated in a 600 cm^2 culture plate, harvested after 72 hours by scraping, washed and resuspended in binding buffer. Transfected cells (8×10^4) were incubated with increasing concentrations of ^125 I-labeled 2*4E6 or IL-12 at room temperature for 2 hrs. Cell bound radioactivity was separated from free ^125 I-labeled 2*4E6 or IL-12 as described above.

IL-12R [3] = molecular target: T3, IL-12R (Homo sapiens, UniProt P42701); test: Inhibition of 125I-2*4E6 binding to cells by unlabeled competitor; parameters: endogenous in cells; host or cells: Kit 225/K6 cells; settings: PHA-activated PBMCs (FIG. 6)
Excerpt: The data are expressed as the amount of ^125 I-2*4E6 bound [CPM BOUND (Percent)] to the cells in the presence of the indicated concentrations of unlabeled antibody or IL-12 when compared with the total specific binding in the absence of unlabeled competitor.

IL-12R [4] = molecular target: T3, IL-12R; test: Steady state 125I-IL-12 binding to human cells (Scatchard); parameters: human cells that naturally express IL-12R; endogenous in cells; receptor-negative PBMC, MRC-5, HL-60; settings: PHA-activated PBMCs, Kit-225 and Kit 225/K6 cells; third (low affinity) site

Kd [1]: 0.188 nM
Kd ([2]; rIL-12R β-expressing COS cells, read-out: apparent affinity of 125I-IL-12, single binding site): 2 to 6 nM
125I-IL-12 sites/cell ([2]; rIL-12R-expressing COS cells): approximately 150,000 sites/cell
block of 125I-2*4E6 binding by unlabeled competitor (IL-12R [3]): does not block
Kd (IL-12R [4]): 2 to 6 nM
Substance: IL-12: 75-kDa heterodimeric cytokine of disulfide-bonded 40-kDa and 35-kDa subunits
IL-12 BINDING (KD, Sites/cell) (IL-12 receptor; HL-60): none detectable
IL-12 BINDING (KD, Sites/cell) (IL-12 receptor; MRC-5): none detectable
IL-12 BINDING (KD, Sites/cell) (IL-12 receptor; RAJI cells): none detectable
Kd (IL-12 receptor; YT cells, 2 sites): 0.109 nM
IL-12 BINDING (KD, Sites/cell) (IL-12 receptor; non-activated human PBMC): none detected
